Experiments:
[1] = target: T1, HUWE1^HECT (Homo sapiens, UniProt Q7Z6Z7); assay: Isothermal titration calorimetry (ITC) with HUWE1^HECT; assay type: binding; conditions: 25 °C
T1 construct: the isolated HECT domain of HUWE1 (HUWE1^HECT); made in house
T1 sequence (Q7Z6Z7 4038-4374 limits assumed): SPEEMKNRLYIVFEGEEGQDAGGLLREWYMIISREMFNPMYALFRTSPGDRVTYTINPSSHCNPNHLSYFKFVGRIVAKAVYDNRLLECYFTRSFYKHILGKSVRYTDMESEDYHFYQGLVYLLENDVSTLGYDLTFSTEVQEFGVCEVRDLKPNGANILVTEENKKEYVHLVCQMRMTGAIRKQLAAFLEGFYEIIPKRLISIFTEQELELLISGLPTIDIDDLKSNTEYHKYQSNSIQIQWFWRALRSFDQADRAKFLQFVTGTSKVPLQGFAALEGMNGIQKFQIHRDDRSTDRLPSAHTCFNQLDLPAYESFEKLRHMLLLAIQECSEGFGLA
Experimental: ITC was performed with an ITC200 calorimeter (MicroCal) at 25 °C. The proteins were dialyzed into 20 mM HEPES (pH 7.5), 150 mM NaCl, and 1 mM β-mercaptoethanol (β-ME) overnight. 600 μM HUWE1^HECT or HUWE1^HECT-Ub were applied to the cell and a 10-fold molar excess of BI8626 to the syringe (and vice versa). The reference cell was filled with buffer. Titration experiments included 1 injection of 1.5 μL, followed by 15 injections of 2.4 μL in 3-s intervals, with 150-s spacings between individual injections. The reference power was set to 12 μcal s^−1 and the stirring speed to 270 rpm. To control for instrument functionality, 5 mM CaCl2 were titrated into 0.4 mM EDTA in 10 mM MES (pH 5.6). Data were plotted with OriginPro v.2020b (OriginLab).

[2] = tested on: HEK293T cells; assay: LC/MS/MS detection of ubiquitinated compound from cell lysates (Ub pull-down); assay type: cell-based, human; conditions: 15 μM, 1 h
Experimental: Samples for LC/MS/MS analyses of the ubiquitinated inhibitors from reconstituted HUWE1^FL-driven reactions were prepared by in-solution trypsin (Mass Spec Grade, Promega) digestion, instead of the gel-based LysC digestion procedure described above. […] In both cases, the samples were reduced and alkylated with 10 mM TCEP and 20 mM iodoacetamide at 37 °C in the dark for 60 min. An equal mixture of Sera-Mag SpeedBeads with hydrophilic and hydrophobic surfaces (GE Healthcare; 1:1 mix (v/v)) was washed twice with water and added to the sample at 50:1(w/w) resin-to-protein ratio. […] The resulting peptides were then dried, dissolved in 5% ACN/0.1% FA (both v/v), and measured on a hybrid quadruple-Obitrap Exploris480 mass spectrometer (Thermo Fisher Scientific) coupled to an Ultimate 3000 UHPLC system (Thermo Fisher Scientific). […]
Sample preparation for LC/MS/MS detection of ubiquitinated compounds from cell lysates was performed according to the following workflow: HEK293T cells at 70% confluency were treated with 15 μM BI8626 or an equal volume of DMSO for 1 h. […] After 20 min incubation on a rotating wheel at 4 °C, the lysate was cleared by centrifugation, the total protein concentrations determined, and the sample (2.3 mg) diluted with 10 mM Tris (pH 7.5), 150 mM NaCl and 0.5 mM EDTA to a final volume of 1 mL. […]

For `NCc1cccc(CNc2ncnc3c(N4CCN(Cc5ccccc5)CC4)ncnc23)c1` [BI8626], the “Interaction with HUWE1^HECT by ITC” value [1] was “No binding was detected” and the “Compound ubiquitination in cells (targeted MS/MS after Ub pull-down)” value [2] was “indeed ubiquitinated in cells”.
